Results taken from patent EP4603105A1, “PHARMACEUTICAL COMPOSITION CONTAINING CYCLIC COMPOUND HAVING SELECTIVE KRAS INHIBITORY EFFECT AGAINST HRAS AND NRAS” (CHUGAI SEIYAKU KABUSHIKI KAISHA, priority 2022, dated 2024).

Key:
[1] = tested on: human lung cancer strain NCI-H441; type: cell-based
Method in brief: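 Readout: […] after the ATP-based reagent. Compound: serial dilutions in dimethyl sulfoxide.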

[2] = biological target: GDP-bound NRAS wild-type protein (Homo sapiens, UniProt P01111); experiment: Binding to NRAS by surface plasmon resonance (SPR), KD and KD ratio to KRAS; conditions: ratio of the KD value with respect to GDP-bound NRAS wild-type protein to the KD value with respect to KRAS
Method in brief: (§1)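 Affinity is measured by surface plasmon resonance at 30°C against captured, GDP-loaded RAS carrying a biotinylated Avi tag. Compounds are titrated by single-cycle kinetics, and KD comes from a 1:1 fit.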

HRAS wild-type protein = HRAS wild-type protein (Homo sapiens, UniProt P01112); experiment: Binding to HRAS by surface plasmon resonance (SPR), KD and KD ratio to KRAS; conditions: ratio of the KD value with respect to HRAS wild-type protein to the KD value with respect to KRAS
Method in brief: as §1

Chain of HRAS wild-type protein (P01112 whole entry): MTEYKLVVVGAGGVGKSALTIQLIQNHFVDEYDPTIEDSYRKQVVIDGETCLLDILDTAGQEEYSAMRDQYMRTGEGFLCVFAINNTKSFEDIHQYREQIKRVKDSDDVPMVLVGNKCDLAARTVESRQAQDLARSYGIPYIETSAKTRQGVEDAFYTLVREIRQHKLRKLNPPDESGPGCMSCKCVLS
Chain of GDP-bound NRAS wild-type protein (P01111 whole entry): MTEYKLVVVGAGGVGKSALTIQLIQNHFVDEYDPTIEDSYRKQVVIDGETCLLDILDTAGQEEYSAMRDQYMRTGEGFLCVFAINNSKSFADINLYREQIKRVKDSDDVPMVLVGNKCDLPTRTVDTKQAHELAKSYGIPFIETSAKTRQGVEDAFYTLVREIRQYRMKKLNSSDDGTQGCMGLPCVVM

SMILES	IC50 [1] [nM]	NRAS /KRAS [2]	HRAS /KRAS (HRAS wild-type protein)
CCO[C@@H]1C[C@H]2C(=O)NC3(CCC3)C(=O)N(C)[C@@H](C3CCCC3)C(=O)N(C)[C@H](C(=O)N(C)C)CC(=O)N(C)[C@@H](CC)C(=O)N[C@@H]([C@@H](C)CC)C(=O)N(C)CC(=O)N(C)[C@H]3CCCCCN(C3=O)[C@@H](Cc3ccc(C(F)(F)F)cc3)C(=O)N(C)CC(=O)N[C@@H](CCc3cc(F)c(C(F)(F)F)c(F)c3)C(=O)N2C1 [PP0663]	22.7	B (a compound having 3 or more and less than 10 is denoted as B)	B (a compound having 3 or more and less than 10 is denoted as B)
C=CC[C@H]1C(=O)N[C@@H]([C@@H](C)CC)C(=O)N(C)CC(=O)N(C)[C@H]2CCCCCN(C2=O)[C@@H](Cc2ccc(C(F)(F)F)cc2)C(=O)N(C)CC(=O)N[C@@H](CCc2cc(F)c(C(F)(F)F)c(F)c2)C(=O)N2C[C@H](OCC)C[C@H]2C(=O)NC2(CCC2)C(=O)N(C)[C@@H](C2CCCC2)C(=O)N(C)[C@H](C(=O)N(C)C)CC(=O)N1C [PP0665]	15.6	B (a compound having 3 or more and less than 10 is denoted as B)	B (a compound having 3 or more and less than 10 is denoted as B)
C#CC[C@H]1C(=O)N[C@@H]([C@@H](C)CC)C(=O)N(C)CC(=O)N(C)[C@H]2CCCCCN(C2=O)[C@@H](Cc2ccc(C(F)(F)F)cc2)C(=O)N(C)CC(=O)N[C@@H](CCc2cc(F)c(C(F)(F)F)c(F)c2)C(=O)N2C[C@H](OCC)C[C@H]2C(=O)NC2(CCC2)C(=O)N(C)[C@@H](C2CCCC2)C(=O)N(C)[C@H](C(=O)N(C)C)CC(=O)N1C [PP0666]	19.1	B (a compound having 3 or more and less than 10 is denoted as B)	B (a compound having 3 or more and less than 10 is denoted as B)
CCO[C@@H]1C[C@H]2C(=O)NC3(CCC3)C(=O)N(C)[C@@H](C3CCCC3)C(=O)N(C)[C@H](C(=O)N(C)C)CC(=O)N(C)[C@@H](CC3CC3)C(=O)N[C@@H]([C@@H](C)CC)C(=O)N(C)CC(=O)N(C)[C@H]3CCCCCN(C3=O)[C@@H](Cc3ccc(C(F)(F)F)cc3)C(=O)N(C)CC(=O)N[C@@H](CCc3cc(F)c(C(F)(F)F)c(F)c3)C(=O)N2C1 [PP0667]	8.8	B (a compound having 3 or more and less than 10 is denoted as B)	B (a compound having 3 or more and less than 10 is denoted as B)
CCO[C@@H]1C[C@H]2C(=O)NC3(CCC3)C(=O)N(C)[C@@H](C3CCCC3)C(=O)N(C)[C@H](C(=O)N(C)C)CC(=O)N(C)[C@@H](CC3CCC3)C(=O)N[C@@H]([C@@H](C)CC)C(=O)N(C)CC(=O)N(C)[C@H]3CCCCCN(C3=O)[C@@H](Cc3ccc(C(F)(F)F)cc3)C(=O)N(C)CC(=O)N[C@@H](CCc3cc(F)c(C(F)(F)F)c(F)c3)C(=O)N2C1 [PP0668]	22.7	B (a compound having 3 or more and less than 10 is denoted as B)	B (a compound having 3 or more and less than 10 is denoted as B)
CCO[C@@H]1C[C@H]2C(=O)NC3(CCC3)C(=O)N(C)[C@@H](C3CCCC3)C(=O)N(C)[C@H](C(=O)N(C)C)CC(=O)N(C)[C@@H](Cc3cccnc3)C(=O)N[C@@H]([C@@H](C)CC)C(=O)N(C)CC(=O)N(C)[C@H]3CCCCCN(C3=O)[C@@H](Cc3ccc(C(F)(F)F)cc3)C(=O)N(C)CC(=O)N[C@@H](CCc3cc(F)c(C(F)(F)F)c(F)c3)C(=O)N2C1 [PP0673]	52.5	B (a compound having 3 or more and less than 10 is denoted as B)	B (a compound having 3 or more and less than 10 is denoted as B)
CCO[C@@H]1C[C@H]2C(=O)NC3(CCC3)C(=O)N(C)[C@@H](C3CCCC3)C(=O)N(C)[C@H](C(=O)N(C)C)CC(=O)N(C)[C@@H](COC)C(=O)N[C@@H]([C@@H](C)CC)C(=O)N(C)CC(=O)N(C)[C@H]3CCCCCN(C3=O)[C@@H](Cc3ccc(C(F)(F)F)cc3)C(=O)N(C)CC(=O)N[C@@H](CCc3cc(F)c(C(F)(F)F)c(F)c3)C(=O)N2C1 [PP0674]	13.9	B (a compound having 3 or more and less than 10 is denoted as B)	B (a compound having 3 or more and less than 10 is denoted as B)
CCO[C@@H]1C[C@H]2C(=O)NC3(CCC3)C(=O)N(C)[C@@H](C3CCCC3)C(=O)N(C)[C@H](C(=O)N3CCOCC3)CC(=O)N(C)[C@@H](CC)C(=O)N[C@@H]([C@@H](C)CC)C(=O)N(C)CC(=O)N(C)[C@H]3CCCCCN(C3=O)[C@@H](Cc3ccc(C(F)(F)F)cc3)C(=O)N(C)CC(=O)N[C@@H](CCc3cc(F)c(C(F)(F)F)c(F)c3)C(=O)N2C1 [PP0678]	35.6	B (a compound having 3 or more and less than 10 is denoted as B)	B (a compound having 3 or more and less than 10 is denoted as B)
CCC[C@H]1C(=O)N[C@@H]([C@@H](C)CC)C(=O)N(C)CC(=O)N(C)[C@H]2CCCCCN(C2=O)[C@@H](Cc2ccc(C(F)(F)F)cc2)C(=O)N(C)CC(=O)N[C@@H](CCc2cc(F)c(C(F)(F)F)c(F)c2)C(=O)N2C[C@H](OCC)C[C@H]2C(=O)NC2(CCC2)C(=O)N(C)[C@@H](C2CCCC2)C(=O)N(C)[C@H](C(=O)N2CCOCC2)CC(=O)N1C [PP0679]	40.2	B (a compound having 3 or more and less than 10 is denoted as B)	B (a compound having 3 or more and less than 10 is denoted as B)
C#CC[C@H]1C(=O)N[C@@H]([C@@H](C)CC)C(=O)N(C)CC(=O)N(C)[C@H]2CCCCCN(C2=O)[C@@H](Cc2ccc(C(F)(F)F)cc2)C(=O)N(C)CC(=O)N[C@@H](CCc2cc(F)c(C(F)(F)F)c(F)c2)C(=O)N2C[C@H](OCC)C[C@H]2C(=O)NC2(CCC2)C(=O)N(C)[C@@H](C2CCCC2)C(=O)N(C)[C@H](C(=O)N2CCOCC2)CC(=O)N1C [PP0681]	24.2	B (a compound having 3 or more and less than 10 is denoted as B)	B (a compound having 3 or more and less than 10 is denoted as B)
CCO[C@@H]1C[C@H]2C(=O)NC3(CCC3)C(=O)N(C)[C@@H](C3CCCC3)C(=O)N(C)[C@H](C(=O)N3CCOCC3)CC(=O)N(C)[C@@H](COC)C(=O)N[C@@H]([C@@H](C)CC)C(=O)N(C)CC(=O)N(C)[C@H]3CCCCCN(C3=O)[C@@H](Cc3ccc(C(F)(F)F)cc3)C(=O)N(C)CC(=O)N[C@@H](CCc3cc(F)c(C(F)(F)F)c(F)c3)C(=O)N2C1 [PP0689]	34.4	B (a compound having 3 or more and less than 10 is denoted as B)	B (a compound having 3 or more and less than 10 is denoted as B)
CCO[C@@H]1C[C@H]2C(=O)NC3(CCC3)C(=O)N(C)[C@@H](C3CCCC3)C(=O)N(C)[C@H](C(=O)N3CCOCC3)CC(=O)N(C)[C@@H](CCOC)C(=O)N[C@@H]([C@@H](C)CC)C(=O)N(C)CC(=O)N(C)[C@H]3CCCCCN(C3=O)[C@@H](Cc3ccc(C(F)(F)F)cc3)C(=O)N(C)CC(=O)N[C@@H](CCc3cc(F)c(C(F)(F)F)c(F)c3)C(=O)N2C1 [PP0690]	60.7	B (a compound having 3 or more and less than 10 is denoted as B)	B (a compound having 3 or more and less than 10 is denoted as B)
